{
  "source": "ChEMBL document CHEMBL1641422",
  "about": "“Bitriazolyl acyclonucleosides synthesized via Huisgen reaction using internal alkynes show antiviral activity against tobacco mosaic virus” (2011)",
  "data": [
    {"system": "Tobacco mosaic virus", "experiment": "Antiviral activity against Tobacco mosaic virus after 72 hrs by half-leaf juice rubbing method", "assay_type": "functional", "set-up": "concentration or dose not given beside the values", "units": {"Activity": "%"}, "values": [
      {"smiles": "NC(=O)c1nc(-c2nn[nH]c2-c2ccccc2)n(COCCO)n1", "Activity": 36},
      {"smiles": "Cc1ccc(-c2[nH]nnc2-c2nc(C(N)=O)nn2COCCO)cc1", "Activity": 28},
      {"smiles": "COc1ccc(-c2[nH]nnc2-c2nc(C(N)=O)nn2COCCO)cc1", "Activity": 39},
      {"smiles": "CCCCc1ccc(-c2[nH]nnc2-c2nc(C(N)=O)nn2COCCO)cc1", "Activity": 22},
      {"smiles": "CCCCCc1ccc(-c2[nH]nnc2-c2nc(C(N)=O)nn2COCCO)cc1", "Activity": 44},
      {"smiles": "NC(=O)c1nc(-c2nn[nH]c2-c2ccc(F)cc2)n(COCCO)n1", "Activity": 29},
      {"smiles": "NC(=O)c1nc(-c2nn[nH]c2-c2ccccc2C(F)(F)F)n(COCCO)n1", "Activity": 17},
      {"smiles": "NC(=O)c1nc(-c2nn[nH]c2-c2cccc(C(F)(F)F)c2)n(COCCO)n1", "Activity": 16},
      {"smiles": "NC(=O)c1nc(-c2nn[nH]c2-c2ccc(C(F)(F)F)cc2)n(COCCO)n1", "Activity": 30},
      {"smiles": "NC(=O)c1nc(-c2nn[nH]c2-c2cccs2)n(COCCO)n1", "Activity": 14},
      {"smiles": "CCCCCc1[nH]nnc1-c1nc(C(N)=O)nn1COCCO", "Activity": 34},
      {"smiles": "NC(=O)c1nc(-c2nn[nH]c2C2=CCCCC2)n(COCCO)n1", "Activity": 23},
      {"smiles": "NC(=O)c1ncn([C@@H]2O[C@H](CO)[C@@H](O)[C@H]2O)n1", "note": "[RIBAVIRIN]", "Activity": 39}
    ]}
  ]
}
